Entries after “also recorded” stand apart in the source; their conditions may differ. Blank lines part the entries; values can stand above or below the compound they belong to.
What was measured:
[1] = tested on: cortical neurons (neuronal survival); conditions: SNOC or purified peroxynitrite incubation; listed as OONO^-
Description: S-nitrosocysteine was added as a source of NO.cndot. to cerebrocortical cultures (Lei et al., (1992) Neuron 8:1087-1099; Stamler et al., (1992) Science 258:1898-1902).
Peroxynitrite leads to lipid peroxidation and massive oxidation of sulfhydryls (Radi et al., (1991) J. Biol. Chem. 266:4244-4250; Radi et al., (1991) Arch. Biochem. Biophys. 288:481-487).
Values are expressed as mean+s.e.m. (n=9). Statistical comparisons were performed by an analysis of variance followed by a Scheffe multiple comparison of means (*, P<0.01 compared to control; **, P<0.05 compared to control; .dagger., P<0.01 compared to nitroso compound+SOD/catalase).
Specifically, the data in FIG. 7 were generated using mixed neuronal and glial cortical cultures from neonatal rats, as described previously (Lei, et al., (1992) Neuron 8:1087-1099). In at least three separate experiments, triplicate cultures were incubated overnight in Earle's buffered saline solution (EBSS) containing various concentrations of SNOC, peroxynitrite, SOD, catalase, or glutamate. […] The culture fluid was assayed for […] (LDH) as an indicator of neuronal survival by measuring the absorbance at 450 nm (Koh et al., (1987) J. Neurosci. Meth. 20:83-90). The cultures were also scored for neuronal viability by cell counting, generally with 0.2% trypan blue, after fixation in 2.5% glutaraldehyde, as described above. Neurons from cultures grown on 15 mm diameter cover slips were counted in a masked fashion in ~30 microscopic fields at 200 x.

[2] = tested on: NMDA receptor (rat cortical neurons in culture); experiment: Digital fura-2 imaging of NMDA-evoked intracellular [Ca2+] in cultured cortical neurons; format: cell-based, rat (Sprague-Dawley); conditions: 50 μM NMDA; Examples 1-2; NTG 100 μM in Example 2
Description: The concentration of intracellular free Ca^2+ ([Ca^2+ ]i) is measured in neonatal cortical neurons by digital imaging microscopy with the Ca^2+ sensitive fluorescent dye fura 2, as follows. The same cortical neuronal cultures as described above are used. During Ca^2+ measurements, unless otherwise stated the fluid bathing the neurons consists of Hanks' balanced salts: 137.6 mM NaCl, 1 mM NaHCO3, 0.34 mM Na2 HPO4, 0.44 mM KH2 PO4, 5.36 mM KCl, 1.25 mM CaCl2, 0.5 mM MgSO4, 0.5 mM MgCl2, 5 mM Hepes NaOH, 22.2 mM glucose, and sometimes with phenol red indicator (0.001% v/v); pH 7.2. NMDA (in the absence Mg^++), glutamate, and other substances are usually applied to the neurons by pressure ejection after dilution in this bath solution. Neuronal [Ca^2+ ]i is analyzed with fura 2-acetoxy-methyl ester (AM) as described [Grynkiewicz, et al., J. Biol. Chem. 260:3440 (1985); Williams et al., Nature 318:558 (1985); Connor et al., J. Neurosci. 7:1384 (1987); Connor et al., Science 240:649 (1988); Cohan et al., J. Neurosci. 7:3588 (1987); Mattson, et al., ibid, 9:3728 (1989)]. After adding Eagle's minimum essential medium containing 10 μM fura 2-AM to the neurons, the cultures are incubated at 37° C. in a 5% CO2 /95% air humidified chamber and then rinsed. The dye is loaded, trapped, and deesterified within 1 hour, as determined by stable fluorescence ratios and the effect of the Ca^2+ ionophore ionomycin on [Ca^2+ ]i is measured. During Ca^2+ imaging, the cells are incubated in a solution of Hepes-buffered saline with Hanks' balanced salts. The [Ca^2+ ]i is calculated from ratio images that are obtained by measuring the fluorescence at 500 nm that is excited by 350 and 380 nm light with a DAGE MTI 66 SIT or QUANTEX QX-100 Intensified CCD camera mounted on a Zeiss Axiovert 35 microscope. Exposure time for each picture is 500 ms. Analysis is performed with a Quantex (Sunnyvale, Calif.) QX7-210 image-processing system. Since cells are exposed to ultraviolet light only during data collection (generally less than a total of 20 s per cell), bleaching of fura 2 is minimal.
In this experiment, the effect of NTG on intracellular [Ca^++ ] increases induced by NMDA were followed using digital [Ca^++ ] imaging techniques, based on the dye fura-2.
Specifically, the model for NMDA-mediated neurotoxicity involves exposure of cultured rat cortical neurons to NMDA in the presence of glycine (a co-agonist).
Cortical cultures were derived from embryonic (fetal day 15 or 16) Sprague-Dawley rats as described previously (Dichter, 1978; Rosenberg and Aizenman, 1989). […]

[3] = tested on: NMDA receptor (cortical neurons); experiment: Patch-clamp recording of NMDA-evoked current in cortical neurons; format: cell-based, rat (Sprague-Dawley); conditions: for Effect on NMDA-evoked current: 50 μM NMDA + 1 μM glycine, -60 mV, DTT 2 mM, NTG 500 μM, DTNB 500 μM, 2 min exposure, washout, FIG. 4
[4] = tested on: cortical neurons (NMDA receptor-mediated neurotoxicity); experiment: Neurotoxicity assay: survival of cortical neurons after DTT and NMDA exposure; format: cell-based, rat; conditions: chemical reduction of redox modulatory site
Description: To test compounds for their ability to prevent neurotoxicity, neuronal cell death may be assayed as follows. […] The candidate compound is tested by addition (e.g., in a series of concentrations ranging from 0.1 nM-10 mM) after DTT treatment but before NMDA treatment. The candidate compound can be added for minutes, hours, or even days prior to its washout period. […] Neuronal cultures are scored for cell survival after this overnight incubation because NMDA toxicity is often delayed by several hours following NMDA exposure.
Using the neurotoxicity assay described above, the compounds sodium nitroprusside and nitroglycerin were tested individually for their ability to increase survival of neonatal cortical neurons.
As shown in FIG. 6A-6D, surviving neurons are expressed as the percentage of viable neurons in the control culture dishes in the same experiment. The concentrations of drugs were as follows: APV (2 mM), NTG (100 μM), SNP (400 μM), DTT (0.5-2 mM), and reduced Hb (500 μM). […] Values are mean ±SEM for experiments run in triplicate on sibling cultures on separate days (total of 32 experiments). Astericks indicate significant difference compared with the value for DTT-NMDA exposure, P<0.05 (ANOVA followed by Scheffe multiple comparison of means.

[5] = tested on: NMDA receptor (rat cortical neurons in culture); experiment: Digital fura-2 imaging of NMDA-evoked intracellular [Ca2+] in cultured cortical neurons; format: cell-based, rat (Sprague-Dawley); conditions: for Effect on NMDA-evoked [Ca2+]i response (SNOC experiment): after 2 mM DTT, 3 min exposure to 100 μM SNOC, NMDA 50 μM, FIG. 5A, P<0.01
[6] = adult treated for Parkinson's symptoms for several weeks; reversible after discontinuation; cited from earlier work

Structure (SMILES): O=NOO [peroxynitrite]
Killing of cortical neurons [1]: kills neurons in a dose-dependent fashion

Effect on NMDA-evoked [Ca2+]i response [2]: reversed the effect of NTG
Structure (SMILES): O[C@H](CS)[C@H](O)CS (racemic) [DTT, dithiothreitol]
Effect on NMDA-evoked current [3]: enhanced the NMDA-evoked current; also recorded: increased NMDA-activated currents
Effect on neurotoxic effect of NMDA [4]: increases the neurotoxic effect of NMDA
Effect on NMDA-evoked [Ca2+]i response (SNOC experiment) [5]: the NMDA-evoked response was increased; also recorded: fully reversed the inhibitory effect of S-nitrosocysteine

Structure (SMILES): CCN1C(=O)C=CC1=O [NEM, N-ethylmalemide]
Effect of NEM pretreatment on the SNOC effect on NMDA-evoked [Ca2+]i ([5]; NEM pretreatment, FIG. 5B): blocks the effect of SNOC

Structure (SMILES): O=C(O)c1cc(SSc2ccc([N+](=O)[O-])c(C(=O)O)c2)ccc1[N+](=O)[O-] [DTNB, 5,5dithio-bis-2-nitrobenzoic acid]
Effect on NMDA-evoked [Ca2+]i response [2]: decreased the NMDA evoked [Ca^2+ ]i responses
Effect on NMDA-evoked current [3]: decreased the responses slightly
Effect on amplitude of NMDA evoked current following alkylation with NEM ([3]; after 1-5 mM NEM): neither NTG nor DTNB significantly affected the amplitude of NMDA evoked current

Effect on NMDA-evoked [Ca2+]i response (SNOC experiment) [5]: inhibited
Structure (SMILES): NC(CSN=O)C(=O)O (stereo not shown) [S-nitrosocysteine (SNOC)]

Structure (SMILES): Cl.NC12CC3CC(CC(C3)C1)C2 [amantadine, 1-adamantanamine hydrochloride]
Visual loss (case report) [6]: one case report of visual loss in an adult patient

Structure (SMILES): CN[C@H](CC(=O)O)C(=O)O [NMDA, N-methyl-D-aspartate]
Maximum NMDA response obtained after exposure to DTT, [Ca2+]i ([5]; NMDA 50 μM after 2 mM DTT, FIG. 5): ~ 750 nM [Ca2+]i

Effect on NMDA-evoked [Ca2+]i response [2]: further enhanced
Structure (SMILES): O[C@H](CS)[C@H](O)CS (relative stereo) [dithiothreitol (DTT)]

Source: patent US5747545A, “Method of preventing NMDA receptor complex-mediated Neuronal damage” (priority 1995, dated 1998)
